{"source": "patent US20170115308A1", "about": "“ASSAY TO MEASURE EFFICACY OF CDK8/19 INHIBITORS” (SENEX BIOTECHNOLOGY, INC., priority 2014, published 2017)", "key": {"[1]": {"test_system": "STAT1 S727 phosphorylation", "assay": "STAT1 S727 phosphorylation by immunoblotting in HCT116 colon carcinoma cells", "type": "cell-based, human", "settings": "for inhibition of STAT1 S727 phosphorylation: HCT116, 24 hr treatment, different concentrations", "description": "(§1) STAT1 S727 phosphorylation was analyzed by immunoblotting using the following primary antibodies: Phospho-Stat1 (Ser727) (D3B7) Rabbit mAb #8826 (used at 1:1000 dilution) and Rabbit Ab #9177 (used at 1:500 dilution) from Cell Signaling Technology (Danvers, Mass.), and total-STAT1 Stat1 p84/p91 Antibody (M-22): sc-592 from Santa Cruz Biotechnology (Dallas, Tex.), used at 1:500 dilution. As a loading control an antibody against a housekeeping protein GAPDH (6C5 mouse monoclonal antibody from Abcam), was used at 1:1000 dilution.\nIn the experiments shown in FIG. 2, this analysis was continued in HCT116 human colon carcinoma cells."}, "[2]": {"test_system": "TNFα-induced CXCL1 and CXCL2 transcription", "assay": "Induction of NFκB-regulated genes by TNFα in HEK-293 cells", "type": "cell-based, human"}, "[3]": {"test_system": "proteins bound at NFκB-regulated and housekeeping genes", "assay": "Chromatin immunoprecipitation (ChIP) with quantitative real-time PCR in 293 cells", "type": "cell-based, human", "excerpt": "Sonicated chromatin was immunoprecipitated with the antibodies against the indicated proteins. The ChIP preps were used for quantitative real-time PCR amplification of different segments of the indicated genes (X-axes show the positions of the tested segments relative to transcription start sites). The results of this analysis for all four conditions (blue, control; red, Senexin A; green, TNFα; purple, TNFα plus Senexin A) are shown, with the genomic positions of the PCR primers diagrammed at the top of the figure.\n(Burke et al., 2014) have recently shown that STAT1 cooperates with NFκB in the induction of CXCL1 and CXCL2 transcription by IL-1β in rat insulinoma cells. We have therefore tested whether TNFα-induced CXCL1 and CXCL2 transcription in HEK-293 cells involves STAT1 and whether pSTAT1 in this system is affected by CDK8/19 inhibition. This analysis was conducted by chromatin immunoprecipitation (ChIP) of 293 cells that were pre-treated with 5 μM CDK8/19 inhibitor Senexin A (Porter et al., 2012) or carrier for one hour, at which point either TNFα at 10 ng/ml or carrier was added for 30 min. Sonicated chromatin was extracted as described (Galbraith et al., 2013) and immunoprecipitated with the antibodies against the indicated proteins. […] The results of this analysis for all four conditions (untreated, Senexin A, TNFα, and TNFα plus Senexin A) are shown in FIG. 5, with the genomic positions of the tested ChIP primers diagrammed at the top of the figure."}, "[4]": {"test_system": "Pol II CTD phosphorylation", "assay": "Immunoblotting of total Pol II CTD phosphorylation in whole-cell lysates of 293 cells", "type": "cell-based, human", "settings": "293 whole-cell lysates, same conditions as the ChIP", "excerpt": "(§2) Results are shown for three biological replicates."}, "[5]": {"test_system": "STAT1 S727 phosphorylation", "assay": "STAT1 S727 phosphorylation in whole-cell protein extracts of 293 cells", "type": "cell-based, human", "settings": "5 μM", "description": "as §2, §1"}, "[6]": {"test_system": "STAT1 in complexes with CDK8", "assay": "CDK8 immunoprecipitation from HCT116 cells, immunoblotted for total STAT1 or phospho-STAT1 S727", "type": "cell-based, human", "settings": "HCT116, 24 hrs, 10 μM", "excerpt": "To determine whether the effect of CDK8/19 inhibitors on STAT1 S727 phosphorylation involved direct interaction between CDK8 and STAT1, we have asked if STAT1 and CDK8 would co-immunoprecipitate, and if so, whether CDK8/19 kinase inhibition would affect STAT1 phosphorylation in complexes with CDK8."}, "[7]": {"test_system": "STAT1 S727 phosphorylation", "assay": "STAT1 S727 phosphorylation by immunoblotting in MCF7 breast cancer cells", "type": "cell-based, human", "description": "as §1\n(§3) FIG. 3 illustrates the inhibition of basal STAT1 S727 phosphorylation by CDK8/19 inhibitors in human breast cancer cell lines."}, "[8]": {"test_system": "STAT1 S727 phosphorylation", "assay": "In situ immunofluorescence staining for phospho-STAT1 S727 and total STAT1 in MCF7 cells", "type": "cell-based, human"}, "[9]": {"test_system": "STAT1 S727 phosphorylation", "assay": "STAT1 S727 phosphorylation by immunoblotting in LNCaP-LN3 derivatives (DV and DK)", "type": "cell-based, human", "settings": "treated for 5 hrs", "description": "as §1\nIn the experiment shown in FIG. 1, human LNCaP-LN3 cells, an in vivo-derived metastatic variant of LNCaP prostate cancer cells were used. We have compared STAT1 S727 phosphorylation in two derivatives of LNCaP-LN3, one with shRNA knockdown of both CDK8 and CDK19 (CDK8 shRNA was expressed from lentiviral vector PHLB carrying blasticidin resistance marker; CDK19 shRNA was expressed from lentiviral vector pLKO.1 carrying puromycin resistance marker) (DK, double knockdown), and in control cells transduced with insert-free PHLB and pLK0.1 vectors (DV, double vector). […] The immunoblotting for phospho-STAT1 S727 (pSTAT1) and total STAT1 (tSTAT1) is shown in FIG. 1A, and image quantitation for the ratio of pSTAT1/tSTAT1 is shown in FIG. 1B. […]"}, "[10]": {"test_system": "STAT1 S727 phosphorylation", "assay": "STAT1 S727 phosphorylation by immunoblotting in SKBR3 breast cancer cells", "type": "cell-based, human", "settings": "SKBR3, 1 μM or 5 μM, after 30 min of treatment", "description": "as §1, §3"}, "[11]": {"test_system": "STAT1 S727 phosphorylation", "assay": "STAT1 S727 phosphorylation by immunoblotting in MDA-MB-361 breast cancer cells", "type": "cell-based, human", "settings": "MDA-MB-361, 6 hr, 5 μM", "description": "as §1, §3"}, "[12]": {"test_system": "STAT1 S727 phosphorylation", "assay": "In situ immunofluorescence staining for phospho-STAT1 S727 and total STAT1 in HCT116 cells", "type": "cell-based, human"}, "[13]": {"test_system": "STAT1 S727 phosphorylation", "settings": "Bancerek et al., 2013; cited from earlier work"}, "[14]": {"settings": "5 μM pre-treatment one hour, TNFα 10 ng/ml 30 min"}}}
{"molecule": "CN(C)C1CC23CCC4(O2)C(=CCC2(C)C(c5ccc6ccncc6c5)=CCC24)C=C3C(O)C1O", "note": "(stereo not drawn) [16-didehydro-cortistatin A]", "values": [{"measurement": "inhibition of STAT1 S727 phosphorylation", "setting": "[1]", "result": "inhibited STAT1 S727 phosphorylation similarly to Senexin B"}]}
{"molecule": "N#Cc1ccc2ncnc(NCCc3ccccc3)c2c1", "note": "[Senexin A]", "values": [{"measurement": "regulation of housekeeping genes HGPRT and GAPDH", "setting": "[2]", "result": "not regulated"}, {"measurement": "inhibition of TNFα induction of CXCL1", "setting": "[2]; 5 μM, TNFα 10 ng/ml", "result": "~10", "unit": "fold"}, {"measurement": "inhibition of TNFα induction of CXCL2", "setting": "[2]; 5 μM, TNFα 10 ng/ml", "result": "~10", "unit": "fold"}, {"measurement": "inhibition of TNFα induction of NFKBIA", "setting": "[2]; 5 μM, TNFα 10 ng/ml", "result": "~1.4", "unit": "fold"}, {"measurement": "Pol II recruitment and distribution along the regulated genes", "setting": "[3]; [14]", "result": "moderate effect"}, {"measurement": "recruitment of p65 subunit of NFκB and CDK8 to promoters of NFκB-regulated genes", "setting": "[3]; [14]", "result": "little or no effect"}, {"measurement": "phospho-STAT1 S727 (pSTAT1) at CXCL1", "setting": "[3]; 5 μM, TNFα", "result": "a strong effect"}, {"measurement": "phospho-STAT1 S727 (pSTAT1) at NFKBIA", "setting": "[3]; 5 μM, TNFα", "result": "a weaker effect"}, {"measurement": "phospho-STAT1 S727 (pSTAT1) at the housekeeping genes", "setting": "[3]; 5 μM, TNFα", "result": "little or no effect"}, {"measurement": "Pol II CTD phosphorylation (S5P, S2P) at the strongly regulated genes", "setting": "[3]; 5 μM, TNFα, CXCL1 and CXCL2", "result": "strongly inhibited"}, {"measurement": "association of pSTAT1 with any of the tested genes", "setting": "[3]; absence of TNFα, total of 90 min treatment", "result": "unaffected"}, {"measurement": "total Pol II CTD phosphorylation", "setting": "[4]", "result": "not significantly affected"}, {"measurement": "STAT1 S727 phosphorylation in whole-cell protein extracts", "setting": "[5]", "result": "strongly inhibited"}, {"measurement": "treatment time after which the effect on STAT1 S727 phosphorylation is noticeable", "setting": "[5]", "result": 15, "unit": "min"}, {"measurement": "treatment time after which the effect on STAT1 S727 phosphorylation is very strong", "setting": "[5]", "result": 1, "unit": "h"}]}
{"molecule": "CN1CCN(C(=O)c2ccc3cc(CCNc4ncnc5ccc(C#N)cc45)ccc3c2)CC1", "note": "[Senexin B]", "values": [{"measurement": "treatment time after which inhibition of STAT1 S727 phosphorylation is noticeable", "setting": "[1]; HCT116, 5 μM", "result": 15, "unit": "min"}, {"measurement": "treatment time after which inhibition of STAT1 S727 phosphorylation is very strong", "setting": "[1]; HCT116, 5 μM", "result": 1, "unit": "h"}, {"measurement": "inhibition of STAT1 S727 phosphorylation", "setting": "[1]", "result": "concentration-dependent inhibition"}, {"measurement": "binding of total STAT1 to CDK8 (co-immunoprecipitation)", "setting": "[6]", "result": "does not affect the binding of total STAT1"}, {"measurement": "phospho-STAT1 S727 in CDK8 immunoprecipitate", "setting": "[6]", "result": "inhibits its phosphorylation at S727"}, {"measurement": "inhibition of STAT1 S727 phosphorylation, concentration series", "setting": "[7]; MCF7, 24 hr treatment, indicated concentrations", "result": "concentration-dependent inhibition"}, {"measurement": "inhibition of STAT1 S727 phosphorylation", "setting": "[7]; MCF7, 24 hr, 5 μM, two antibodies (#8826 and #9177)", "result": "inhibition of STAT1 S727 phosphorylation"}, {"measurement": "staining with phospho-STAT1 S727 antibody in situ", "setting": "[8]", "result": "inhibition of STAT1 S727 phosphorylation"}, {"measurement": "staining with the antibody against total STAT1", "setting": "[8]", "result": "no apparent effect"}, {"measurement": "concentration from which STAT1 S727 phosphorylation plateaus at a low level", "setting": "[9]; LNCaP-LN3 DV and DK cells", "result": 1, "unit": "µM"}, {"measurement": "concentration from which basal STAT1 S727 phosphorylation is decreased (lowest concentration)", "setting": "[9]; LNCaP-LN3 cells, pSTAT1/tSTAT1 ratio", "result": 16, "unit": "nM"}, {"measurement": "inhibition of STAT1 S727 phosphorylation, time course", "setting": "[10]", "result": "strong inhibition"}, {"measurement": "inhibition of STAT1 S727 phosphorylation", "setting": "[11]", "result": "inhibits STAT1 S727 phosphorylation"}, {"measurement": "staining with phospho-STAT1 S727 antibody in situ", "setting": "[12]", "result": "inhibition of STAT1 S727 phosphorylation"}, {"measurement": "staining with the antibody against total STAT1", "setting": "[12]", "result": "no apparent effect"}]}
{"molecule": "CN1CC[C@H](c2c(O)cc(O)c3c(=O)cc(-c4ccccc4Cl)oc23)[C@H](O)C1", "note": "[flavopiridol]", "values": [{"measurement": "enhancement of STAT1 S727 phosphorylation by LPS or anisomycin", "setting": "[13]", "result": "failed to inhibit"}]}
{"molecule": "Cortistatin A", "values": [{"measurement": "inhibition of STAT1 S727 phosphorylation", "setting": "[1]", "result": "concentration-dependent inhibition"}]}
